Measurements: the supplement of paper PMC10307832

Tests used:
Assay in all cases: relative viability (nuclei count vs DMSO), 5 days (fraction); higher = more cells survive
[1] = compound: CC1=CN=C(N=C1C2=CNC(=C2)C(=O)N[C@H](CO)C3=CC(=CC=C3)Cl)NC4=C(C=C(C=C4)F)Cl [VX-11e] + C[C@]1(O)C[C@@H](c2nc(-c3ccc4ccc(-c5ccccc5)nc4c3)c3c(N)nccn32)C1 [Linsitinib] (partner 1 µM)
Summary of the method: (§1)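 Lung cancer cell lines were seeded in 1536-well plates and dosed by pin tool the next day, with either a single drug or a fixed anchor-drug dose combined with five library-drug doses (not always all listed) spaced in √10 steps. Five days later, one step fixed the cells and stained their nuclei (final 0.05% Triton X-100, 1% formaldehyde, 1 ug/ml Hoechst), and nuclei were counted on 4× images. Relative viability is the nuclei count in treated wells divided by the count in vehicle wells, and each value is the median of duplicate plates.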

[2] = compound: CC1=CN=C(N=C1C2=CNC(=C2)C(=O)N[C@H](CO)C3=CC(=CC=C3)Cl)NC4=C(C=C(C=C4)F)Cl [VX-11e] + COc1cccc2cc(-c3nc([C@H]4CC[C@H](C(=O)O)CC4)n4ncnc(N)c34)[nH]c12 [OSI-027] (partner 0.5 µM)
Summary of the method: as §1

[3] = compound: CC1=CN=C(N=C1C2=CNC(=C2)C(=O)N[C@H](CO)C3=CC(=CC=C3)Cl)NC4=C(C=C(C=C4)F)Cl [VX-11e] + Cc1cc(Nc2cc(N3CCN(C)CC3)nc(Sc3ccc(NC(=O)C4CC4)cc3)n2)n[nH]1 [Tozasertib] (partner 0.1 µM)
Summary of the method: as §1

[4] = compound: CC1=CN=C(N=C1C2=CNC(=C2)C(=O)N[C@H](CO)C3=CC(=CC=C3)Cl)NC4=C(C=C(C=C4)F)Cl [VX-11e] + C[C@@H](Oc1cc(-c2cnn(C3CCNCC3)c2)cnc1N)c1c(Cl)ccc(F)c1Cl [Crizotinib] (partner 1 µM)
Summary of the method: as §1

Row | Cell Line | relative viability ([1]; first compound 0.04 µM) | relative viability ([1]; first compound 0.1265 µM) | relative viability ([1]; first compound 0.4 µM) | relative viability ([1]; first compound 1.265 µM) | relative viability ([1]; first compound 4 µM) | relative viability ([2]; first compound 0.04 µM) | relative viability ([2]; first compound 0.1265 µM) | relative viability ([2]; first compound 0.4 µM) | relative viability ([2]; first compound 1.265 µM) | relative viability ([2]; first compound 4 µM) | relative viability ([3]; first compound 0.04 µM) | relative viability ([3]; first compound 0.1265 µM) | relative viability ([3]; first compound 0.4 µM) | relative viability ([3]; first compound 1.265 µM) | relative viability ([3]; first compound 4 µM) | relative viability ([4]; first compound 0.04 µM) | relative viability ([4]; first compound 0.1265 µM) | relative viability ([4]; first compound 0.4 µM) | relative viability ([4]; first compound 1.265 µM) | relative viability ([4]; first compound 4 µM)
1 | NCI-H2085 | 0.987 | 0.818 | 0.834 | 0.9 | 0.649 | 0.625 | 0.695 | 0.517 | 0.322 | 0.251 | 0.897 | 0.724 | 0.659 | 0.644 | 0.413 | 0.88 | 0.817 | 0.746 | 0.714 | 0.619
2 | NCI-H1666 | 0.846 | 0.81 | 0.594 | 0.493 | 0.42 | 0.932 | 0.777 | 0.75 | 0.611 | 0.524 | 0.561 | 0.584 | 0.49 | 0.52 | 0.388 | 1.03 | 0.818 | 0.753 | 0.752 | 0.456
3 | LCLC-97TM1 | 0.158 | 0.172 | – | 0.203 | 0.116 | 0.494 | 0.274 | 0.287 | 0.418 | 0.175 | 0.21 | 0.223 | 0.2 | 0.166 | 0.179 | 0.396 | 0.383 | – | 0.324 | 0.182
4 | NCI-H1755 | 1.03 | 0.976 | 0.95 | 0.94 | 0.553 | 0.665 | 0.527 | 0.4 | 0.756 | 0.468 | 0.59 | 0.487 | 0.513 | 0.527 | 0.402 | 0.905 | 0.849 | 0.845 | 0.873 | 0.491
5 | H3255 | 1.01 | 0.815 | 0.971 | 0.956 | 0.879 | 0.52 | 0.601 | 0.559 | 0.637 | 0.407 | 0.732 | 0.698 | 0.562 | 0.595 | 0.724 | 0.898 | 0.716 | 0.608 | 0.877 | 0.887
6 | NCI-H2087 | 0.949 | 1.1 | 0.902 | 0.803 | 0.302 | 0.357 | 0.448 | – | 0.319 | 0.145 | 0.28 | 0.208 | – | 0.203 | 0.167 | 1.03 | 0.809 | 0.944 | 1.07 | 0.502
7 | BEN | 1.04 | 0.701 | 0.923 | 0.54 | 0.783 | – | 0.274 | 0.302 | 0.285 | 0.242 | – | 0.477 | 0.642 | 0.456 | 0.417 | 0.953 | 0.723 | 0.941 | 0.575 | 0.828
8 | COR-L23 | 1.04 | 0.905 | 0.816 | 0.508 | 0.248 | 0.733 | 0.591 | 0.579 | 0.347 | 0.185 | 0.157 | 0.142 | 0.138 | 0.124 | 0.127 | 0.708 | 0.627 | 0.646 | 0.497 | 0.211
9 | ABC-1 | 0.814 | 0.792 | 0.597 | 0.531 | 0.538 | 0.309 | 0.426 | 0.374 | 0.339 | 0.278 | 0.137 | 0.219 | 0.175 | 0.123 | 0.188 | 1.24 | 1.07 | 1.06 | 0.892 | 1.09
10 | HCC-366 | 0.774 | 0.602 | – | 0.348 | 0.0744 | 0.811 | 0.795 | – | 0.544 | 0.136 | 0.12 | 0.0759 | – | 0.0517 | 0.0473 | 0.605 | 0.476 | – | 0.561 | 0.184
11 | SK-MES-1 | 1.08 | 1.03 | 1.07 | 1.05 | 0.691 | 0.585 | 0.436 | 0.632 | 0.552 | 0.185 | 0.884 | 0.873 | 0.844 | 0.908 | 0.376 | 1.09 | 0.966 | 1.05 | 0.964 | 0.643
12 | UMC-11 | 0.935 | 0.937 | 1 | 1 | 0.989 | 0.36 | 0.435 | 0.41 | 0.379 | 0.428 | 0.185 | 0.201 | 0.206 | 0.182 | 0.19 | 0.699 | 0.785 | 0.574 | 0.511 | 0.662
13 | NCI-H2023 | 0.727 | 0.692 | 0.596 | 0.362 | 0.283 | 0.332 | 0.349 | 0.139 | 0.183 | 0.114 | 0.279 | 0.161 | 0.161 | 0.142 | 0.0967 | 0.633 | 0.606 | 0.519 | 0.427 | 0.338
14 | LK-2 | 0.774 | 0.672 | 0.555 | 0.205 | 0.313 | 0.163 | 0.187 | 0.146 | 0.153 | 0.17 | 0.148 | 0.182 | 0.22 | 0.185 | 0.159 | – | 0.275 | 0.394 | – | 0.243
15 | EKVX | 1.01 | 0.971 | 1.05 | 0.87 | 0.559 | 0.692 | 0.661 | 0.703 | 0.667 | 0.223 | 0.385 | 0.398 | 0.342 | 0.257 | 0.163 | 1.07 | 0.944 | 0.879 | 0.764 | 0.617
16 | NCI-H1975 | 0.841 | 1.09 | 0.991 | 0.959 | 0.367 | 0.695 | 0.499 | 0.291 | 0.415 | 0.162 | 0.695 | 0.526 | 0.228 | 0.216 | 0.124 | 0.972 | 0.962 | 0.95 | 0.963 | 0.407
